Assay results published in ChEMBL document CHEMBL4017490, “Design, Synthesis, and Pharmacological Evaluation of Novel Multisubstituted Pyridin-3-amine Derivatives as Multitargeted Protein Kinase Inhibitors for the Treatment of Non-Small Cell Lung Cancer” (J Med Chem, 2017).

Assays:
[1] = target: Fibroblast growth factor receptor 1 (Homo sapiens, UniProt P11362); experiment: Inhibition of recombinant human FGFR1 using poly (Glu,Tyr) 4:1 as substrate after 60 mins by ELISA
[2] = target: Vascular endothelial growth factor receptor 2 (Homo sapiens, UniProt P35968); experiment: Inhibition of recombinant KDR (unknown origin) using poly (Glu,Tyr) 4:1 as substrate after 60 mins by ELISA
Vascular endothelial growth factor receptor 2, sequence (P35968 whole entry): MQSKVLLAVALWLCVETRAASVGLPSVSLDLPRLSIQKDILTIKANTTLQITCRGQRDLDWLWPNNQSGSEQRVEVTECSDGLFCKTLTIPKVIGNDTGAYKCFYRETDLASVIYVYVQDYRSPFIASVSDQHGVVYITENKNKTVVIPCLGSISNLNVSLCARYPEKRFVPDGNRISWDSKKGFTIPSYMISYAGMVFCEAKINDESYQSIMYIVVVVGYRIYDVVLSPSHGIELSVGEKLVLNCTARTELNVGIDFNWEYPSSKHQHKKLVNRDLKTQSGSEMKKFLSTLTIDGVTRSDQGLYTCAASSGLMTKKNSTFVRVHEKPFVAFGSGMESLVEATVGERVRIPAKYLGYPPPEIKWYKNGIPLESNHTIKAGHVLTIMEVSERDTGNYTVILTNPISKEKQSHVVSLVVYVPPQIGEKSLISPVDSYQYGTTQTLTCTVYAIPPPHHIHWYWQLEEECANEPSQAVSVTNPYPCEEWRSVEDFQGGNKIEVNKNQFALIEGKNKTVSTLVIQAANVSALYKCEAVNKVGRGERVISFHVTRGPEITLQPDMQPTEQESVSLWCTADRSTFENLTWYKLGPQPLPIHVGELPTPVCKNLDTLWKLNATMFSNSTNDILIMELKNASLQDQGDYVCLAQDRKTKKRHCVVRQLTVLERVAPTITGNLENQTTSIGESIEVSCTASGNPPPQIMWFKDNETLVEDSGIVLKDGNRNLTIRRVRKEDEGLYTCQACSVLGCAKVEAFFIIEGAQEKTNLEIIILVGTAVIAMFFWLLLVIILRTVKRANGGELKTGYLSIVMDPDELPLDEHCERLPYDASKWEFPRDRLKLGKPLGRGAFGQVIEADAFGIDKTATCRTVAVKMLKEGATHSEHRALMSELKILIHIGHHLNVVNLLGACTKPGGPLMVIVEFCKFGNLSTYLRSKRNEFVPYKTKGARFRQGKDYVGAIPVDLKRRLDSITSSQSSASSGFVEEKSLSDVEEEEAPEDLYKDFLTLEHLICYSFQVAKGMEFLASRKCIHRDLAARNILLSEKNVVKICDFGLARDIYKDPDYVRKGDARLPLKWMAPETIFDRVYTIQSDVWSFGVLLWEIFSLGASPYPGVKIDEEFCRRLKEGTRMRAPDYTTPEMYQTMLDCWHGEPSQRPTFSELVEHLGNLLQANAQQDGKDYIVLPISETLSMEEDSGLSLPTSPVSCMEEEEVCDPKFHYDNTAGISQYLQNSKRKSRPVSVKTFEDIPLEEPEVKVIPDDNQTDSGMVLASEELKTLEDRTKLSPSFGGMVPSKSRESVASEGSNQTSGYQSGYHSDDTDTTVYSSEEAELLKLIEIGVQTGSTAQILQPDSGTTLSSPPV

[3] = target: Epidermal growth factor receptor (Homo sapiens, UniProt P00533, L858R/T790M); experiment: Inhibition of recombinant EGFR T790M/L858R mutant (unknown origin) using poly (Glu,Tyr) 4:1 as substrate after 60 mins by ELISA
[4] = target: Receptor tyrosine-protein kinase erbB-4 (Homo sapiens, UniProt Q15303); experiment: Inhibition of recombinant ErbB4 (unknown origin) using poly (Glu,Tyr) 4:1 as substrate after 60 mins by ELISA
[5] = target: Proto-oncogene tyrosine-protein kinase Src (Homo sapiens, UniProt P12931); experiment: Inhibition of recombinant c-Src (unknown origin) using poly (Glu,Tyr) 4:1 as substrate after 60 mins by ELISA
[6] = target: Vascular endothelial growth factor receptor 1 (Homo sapiens, UniProt P17948); experiment: Inhibition of recombinant VEGFR-1 (unknown origin) using poly (Glu,Tyr) 4:1 as substrate after 60 mins by ELISA
Vascular endothelial growth factor receptor 1, sequence (P17948 whole entry): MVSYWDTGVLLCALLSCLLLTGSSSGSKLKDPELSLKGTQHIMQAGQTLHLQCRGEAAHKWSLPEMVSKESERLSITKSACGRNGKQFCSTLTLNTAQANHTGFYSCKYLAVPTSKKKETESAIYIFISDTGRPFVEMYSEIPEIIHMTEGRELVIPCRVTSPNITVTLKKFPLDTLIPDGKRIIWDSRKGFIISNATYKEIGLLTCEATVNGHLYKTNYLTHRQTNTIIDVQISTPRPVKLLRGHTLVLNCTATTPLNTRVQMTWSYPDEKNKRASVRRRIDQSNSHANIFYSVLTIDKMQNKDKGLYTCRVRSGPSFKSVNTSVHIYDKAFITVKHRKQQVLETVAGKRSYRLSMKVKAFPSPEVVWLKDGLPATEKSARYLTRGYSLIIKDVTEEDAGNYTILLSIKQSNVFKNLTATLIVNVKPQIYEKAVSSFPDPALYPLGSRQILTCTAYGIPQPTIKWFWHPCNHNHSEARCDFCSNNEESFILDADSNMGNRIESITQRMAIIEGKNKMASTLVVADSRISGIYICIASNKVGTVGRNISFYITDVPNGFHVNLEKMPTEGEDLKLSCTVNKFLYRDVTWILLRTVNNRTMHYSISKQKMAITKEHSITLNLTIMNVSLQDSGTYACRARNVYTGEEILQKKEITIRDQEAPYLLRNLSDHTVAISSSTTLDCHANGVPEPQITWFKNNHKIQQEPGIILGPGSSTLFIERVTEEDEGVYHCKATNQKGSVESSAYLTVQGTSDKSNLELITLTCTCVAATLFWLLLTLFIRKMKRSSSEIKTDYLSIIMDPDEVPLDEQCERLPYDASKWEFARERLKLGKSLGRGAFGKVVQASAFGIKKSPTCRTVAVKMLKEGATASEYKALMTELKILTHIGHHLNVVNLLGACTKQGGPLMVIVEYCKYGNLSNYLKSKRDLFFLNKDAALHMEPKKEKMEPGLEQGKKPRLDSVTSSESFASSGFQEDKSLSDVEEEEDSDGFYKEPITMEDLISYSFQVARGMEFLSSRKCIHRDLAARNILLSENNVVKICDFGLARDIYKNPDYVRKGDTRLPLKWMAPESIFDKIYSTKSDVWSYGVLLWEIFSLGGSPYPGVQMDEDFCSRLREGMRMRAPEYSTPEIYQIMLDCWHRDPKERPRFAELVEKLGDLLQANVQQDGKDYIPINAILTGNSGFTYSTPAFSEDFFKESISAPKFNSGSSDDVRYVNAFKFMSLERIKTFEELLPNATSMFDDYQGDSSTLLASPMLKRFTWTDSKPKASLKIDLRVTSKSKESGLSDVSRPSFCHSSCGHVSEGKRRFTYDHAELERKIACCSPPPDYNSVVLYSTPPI

Insulin receptor = Insulin receptor (Homo sapiens, UniProt P06213); experiment: Inhibition of recombinant IR (unknown origin) using poly (Glu,Tyr) 4:1 as substrate after 60 mins by ELISA
[7] = target: Insulin-like growth factor 1 receptor (Homo sapiens, UniProt P08069); experiment: Inhibition of recombinant IGF1R (unknown origin) using poly (Glu,Tyr) 4:1 as substrate after 60 mins by ELISA
[8] = target: Platelet-derived growth factor receptor beta (Homo sapiens, UniProt P09619); experiment: Inhibition of recombinant PDGFR-beta (unknown origin) using poly (Glu,Tyr) 4:1 as substrate after 60 mins by ELISA
[9] = target: Leukocyte tyrosine kinase receptor (Homo sapiens, UniProt P29376); experiment: Inhibition of recombinant LTK (unknown origin) using poly (Glu,Tyr) 4:1 as substrate after 60 mins by ELISA
[10] = target: Proto-oncogene tyrosine-protein kinase ROS (Homo sapiens, UniProt P08922); experiment: Inhibition of recombinant ROS1 (unknown origin) using poly (Glu,Tyr) 4:1 as substrate after 60 mins by ELISA
Proto-oncogene tyrosine-protein kinase ROS, sequence (P08922 whole entry): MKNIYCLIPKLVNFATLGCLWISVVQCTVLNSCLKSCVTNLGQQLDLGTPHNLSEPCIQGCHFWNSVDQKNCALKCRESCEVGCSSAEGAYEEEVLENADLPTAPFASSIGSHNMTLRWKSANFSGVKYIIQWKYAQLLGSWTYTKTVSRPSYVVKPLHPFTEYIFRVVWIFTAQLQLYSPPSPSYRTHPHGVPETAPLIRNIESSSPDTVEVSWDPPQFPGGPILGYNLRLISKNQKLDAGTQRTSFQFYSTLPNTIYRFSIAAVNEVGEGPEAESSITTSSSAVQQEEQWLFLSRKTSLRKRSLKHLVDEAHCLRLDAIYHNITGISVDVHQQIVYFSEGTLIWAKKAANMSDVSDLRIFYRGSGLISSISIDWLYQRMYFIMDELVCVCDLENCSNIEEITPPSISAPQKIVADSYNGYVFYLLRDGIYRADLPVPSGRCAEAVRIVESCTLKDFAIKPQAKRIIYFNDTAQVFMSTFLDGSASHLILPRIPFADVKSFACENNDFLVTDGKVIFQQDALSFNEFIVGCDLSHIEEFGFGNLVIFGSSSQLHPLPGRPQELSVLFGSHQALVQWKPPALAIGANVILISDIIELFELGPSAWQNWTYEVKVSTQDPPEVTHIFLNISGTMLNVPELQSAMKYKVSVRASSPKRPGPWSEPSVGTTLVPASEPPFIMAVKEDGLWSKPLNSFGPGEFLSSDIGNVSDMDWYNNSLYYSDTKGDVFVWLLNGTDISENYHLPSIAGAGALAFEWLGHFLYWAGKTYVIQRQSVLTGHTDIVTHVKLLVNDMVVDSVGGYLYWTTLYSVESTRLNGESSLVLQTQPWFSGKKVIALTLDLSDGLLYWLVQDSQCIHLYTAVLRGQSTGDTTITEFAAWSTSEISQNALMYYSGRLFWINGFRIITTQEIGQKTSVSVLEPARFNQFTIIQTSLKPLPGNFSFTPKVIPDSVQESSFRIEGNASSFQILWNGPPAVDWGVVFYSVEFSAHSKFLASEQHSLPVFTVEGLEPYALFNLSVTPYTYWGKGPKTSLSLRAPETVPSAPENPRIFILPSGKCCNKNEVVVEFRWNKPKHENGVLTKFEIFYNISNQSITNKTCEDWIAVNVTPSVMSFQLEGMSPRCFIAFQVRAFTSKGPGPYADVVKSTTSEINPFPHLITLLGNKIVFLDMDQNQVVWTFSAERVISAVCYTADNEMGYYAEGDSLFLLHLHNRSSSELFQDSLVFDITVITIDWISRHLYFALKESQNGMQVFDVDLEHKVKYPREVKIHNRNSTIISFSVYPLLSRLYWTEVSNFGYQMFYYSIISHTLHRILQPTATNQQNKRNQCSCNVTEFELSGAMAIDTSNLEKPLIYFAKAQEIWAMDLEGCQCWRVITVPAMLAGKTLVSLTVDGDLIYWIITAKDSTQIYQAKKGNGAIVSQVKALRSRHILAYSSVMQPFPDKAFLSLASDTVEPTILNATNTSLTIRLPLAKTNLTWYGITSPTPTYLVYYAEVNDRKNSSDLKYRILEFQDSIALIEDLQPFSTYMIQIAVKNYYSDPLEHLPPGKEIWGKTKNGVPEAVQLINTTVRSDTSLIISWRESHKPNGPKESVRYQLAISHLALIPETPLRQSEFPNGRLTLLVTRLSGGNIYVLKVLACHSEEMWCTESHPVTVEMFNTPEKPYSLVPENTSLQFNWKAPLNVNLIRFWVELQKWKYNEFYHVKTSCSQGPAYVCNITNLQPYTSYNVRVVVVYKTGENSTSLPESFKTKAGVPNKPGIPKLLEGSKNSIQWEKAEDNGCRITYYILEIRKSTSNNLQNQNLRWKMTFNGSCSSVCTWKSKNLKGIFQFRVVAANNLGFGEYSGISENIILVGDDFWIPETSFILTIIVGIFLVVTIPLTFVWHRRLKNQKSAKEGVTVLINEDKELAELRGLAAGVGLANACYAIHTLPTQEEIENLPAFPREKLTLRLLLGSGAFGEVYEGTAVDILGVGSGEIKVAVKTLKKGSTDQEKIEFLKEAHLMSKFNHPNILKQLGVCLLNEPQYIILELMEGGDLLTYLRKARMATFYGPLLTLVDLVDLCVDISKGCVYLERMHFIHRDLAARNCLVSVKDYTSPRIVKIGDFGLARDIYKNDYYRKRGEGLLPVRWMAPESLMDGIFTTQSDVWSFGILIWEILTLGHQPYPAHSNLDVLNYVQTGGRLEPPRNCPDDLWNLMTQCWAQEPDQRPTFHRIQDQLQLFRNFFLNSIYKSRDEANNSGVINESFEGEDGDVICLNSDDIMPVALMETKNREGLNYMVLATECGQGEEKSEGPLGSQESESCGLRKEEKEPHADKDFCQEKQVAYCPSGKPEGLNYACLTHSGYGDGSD

Ephrin type-A receptor 2 = Ephrin type-A receptor 2 (Homo sapiens, UniProt P29317); experiment: Inhibition of recombinant EPH-A2 (unknown origin) using poly (Glu,Tyr) 4:1 as substrate after 60 mins by ELISA
[11] = target: T1, Tyrosine-protein kinase receptor UFO (Homo sapiens, UniProt P30530); experiment: Inhibition of recombinant AXL (unknown origin) using poly (Glu,Tyr) 4:1 as substrate after 60 mins by ELISA
T1 sequence (P30530 whole entry): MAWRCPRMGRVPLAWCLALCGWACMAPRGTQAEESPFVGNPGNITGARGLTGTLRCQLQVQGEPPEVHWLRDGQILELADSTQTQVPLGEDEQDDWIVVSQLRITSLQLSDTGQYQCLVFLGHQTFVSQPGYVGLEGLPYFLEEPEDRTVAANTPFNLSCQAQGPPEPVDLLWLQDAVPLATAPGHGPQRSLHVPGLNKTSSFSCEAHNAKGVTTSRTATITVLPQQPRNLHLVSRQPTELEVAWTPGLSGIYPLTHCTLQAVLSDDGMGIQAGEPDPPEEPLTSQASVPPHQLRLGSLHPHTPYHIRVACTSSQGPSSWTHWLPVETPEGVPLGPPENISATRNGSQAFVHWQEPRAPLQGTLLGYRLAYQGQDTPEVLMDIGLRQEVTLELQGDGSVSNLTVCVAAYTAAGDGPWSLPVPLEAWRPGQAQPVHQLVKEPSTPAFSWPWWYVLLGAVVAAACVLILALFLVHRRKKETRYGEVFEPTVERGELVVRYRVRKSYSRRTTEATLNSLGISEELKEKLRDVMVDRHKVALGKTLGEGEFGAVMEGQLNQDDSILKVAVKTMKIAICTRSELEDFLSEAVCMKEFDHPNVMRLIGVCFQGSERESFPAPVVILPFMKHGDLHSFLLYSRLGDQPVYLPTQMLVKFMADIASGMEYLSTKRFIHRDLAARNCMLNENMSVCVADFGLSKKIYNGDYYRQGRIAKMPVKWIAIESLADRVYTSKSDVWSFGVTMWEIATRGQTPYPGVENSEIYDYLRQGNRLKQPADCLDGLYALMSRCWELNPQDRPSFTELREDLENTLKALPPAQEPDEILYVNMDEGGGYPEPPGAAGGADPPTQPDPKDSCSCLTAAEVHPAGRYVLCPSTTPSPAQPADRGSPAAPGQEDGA

[12] = target: ALK tyrosine kinase receptor (Homo sapiens, UniProt Q9UM73)
Description: Inhibition of recombinant ALK (unknown origin) using poly (Glu,Tyr) 4:1 as substrate after 60 mins by ELISA

[13] = Tmax in Sprague-Dawley rat at 20 mg/kg, po by LC-MS/MS method; type: ADME, organism-based; settings: in vivo
[14] = Tmax in CD-1 mouse at 5 mg/kg, iv by LC-MS/MS method; type: ADME, organism-based; settings: in vivo
[15] = AUC (0 to t) in Sprague-Dawley rat at 20 mg/kg, po by LC-MS/MS method; type: ADME, organism-based; settings: in vivo
[16] = AUC (0 to t) in CD-1 mouse at 5 mg/kg, iv by LC-MS/MS method; type: ADME, organism-based; settings: in vivo
[17] = AUC (0 to infinity) in CD-1 mouse at 20 mg/kg, po by LC-MS/MS method; type: ADME, organism-based; parameters: dose 20 mg/kg, time infinity, route oral; settings: in vivo
[18] = Half life in CD-1 mouse at 20 mg/kg, po by LC-MS/MS method; type: ADME, organism-based; settings: in vivo
[19] = Oral bioavailability in Sprague-Dawley rat at 20 mg/kg by LC-MS/MS method; type: ADME, organism-based; settings: in vivo
[20] = Apparent clearance in Sprague-Dawley rat at 10 mg/kg, iv by LC-MS/MS method; type: ADME, organism-based; settings: in vivo, read-out: CL(app) (converted)
NCI-H1581 [21] = experiment: Antitumor activity against human NCI-H1581 cells xenografted in nude mouse assessed as tumor growth inhibition at 5 mg/kg, po qd administered for 14 days measured twice per week during compound dosing; type: functional; settings: 336 h, read-out: TGI
NCI-H1581 [22] = experiment: Antitumor activity against human NCI-H1581 cells xenografted in nude mouse assessed as tumor growth inhibition at 20 mg/kg, po qd administered for 14 days measured twice per week during compound dosing; type: functional; settings: 336 h, read-out: TGI
[23] = Protein binding in plasma (unknown origin); type: ADME, cell-free; settings: read-out: PPB (converted)
Mus musculus [24] = experiment: Unbound Cmax in CD-1 mouse at 5 mg/kg, iv by LC-MS/MS method; type: ADME, organism-based; settings: in vivo
Mus musculus [25] = experiment: Toxicity in nude mouse xenografted with human NCI-H1581 cells assessed as body weight loss at 20 mg/kg, po qd administered for 14 days; type: organism-based; settings: in vivo, 336 h
NCI-H1581 [26] = settings: Homo sapiens
Description: Antitumor activity against human NCI-H1581 cells xenografted in po dosed nude mouse assessed as tumor growth inhibition administered as qd for 14 days measured twice per week during compound dosing

IC50 [1]	IC50 [2]	IC50 [3]	IC50 [4]	IC50 [5]	IC50 [6]	IC50 (Insulin receptor)	IC50 [7]	IC50 [8]	IC50 [9]	IC50 [10]	IC50 (Ephrin type-A receptor 2)	IC50 [11]	IC50 [12]	Compound	further results
55.8 nM	3.7 nM	8.6 nM	5.3 nM	3.9 nM	> 10 nM	91.6 nM	> 100 nM	> 100 nM	300 nM	273 nM	> 10 nM	> 1000 nM	231 nM	Cc1n[nH]c2ccc(-c3cc(N[C@@H](CO)c4ccccc4)cnc3-c3cc(Cl)ccc3O)cc12	–
16.1 nM	0.8 nM	1.9 nM	5 nM	6.4 nM	> 10 nM	431 nM	> 1000 nM	1 to 10 nM	45.3 nM	168 nM	> 100 nM	> 1000 nM	93.9 nM	OC[C@H](Nc1cnc(-c2cc(Cl)ccc2O)c(-c2ccc3cnccc3c2)c1)c1ccccc1	–
18 nM	1.7 nM	6 nM	6.2 nM	5.7 nM	1 to 10 nM	417 nM	> 1000 nM	> 10 nM	123 nM	> 1000 nM	> 10 nM	> 1000 nM	101 nM	Cc1n[nH]c2ccc(-c3cc(N[C@@H](CO)c4ccccc4)cnc3-c3cc(F)ccc3O)cc12	Tmax [13]: 1 h; Tmax [14]: 1.5 h; AUC(0-t) [15]: 16600 ng·h/mL; AUC(0-t) [16]: 289 ng·h/mL; AUC(0-inf) [17]: 2410 ng·h/mL; half-life [18]: 2.72 h; bioavailability [19]: 60%; clearance [20]: 12.1 mL/min/kg; inhibition in vivo at 5 mg/kg (NCI-H1581 [21]): 37.8%; inhibition in vivo at 20 mg/kg (NCI-H1581 [22]): 66.1%; fraction unbound [23]: 0.0044; fCmax (Mus musculus [24]): 1.1 nM; Activity (Mus musculus [25]): Toxic; TGI (NCI-H1581 [26]): Dose-dependent effect
25.2 nM	2.6 nM	1.3 nM	2.4 nM	6 nM	> 10 nM	888 nM	> 1000 nM	1 to 10 nM	68.5 nM	> 1000 nM	> 100 nM	> 1000 nM	155 nM	Cc1n[nH]c2ccc(-c3cc(N[C@@H](CO)c4ccccc4)cnc3-c3ccc(F)cc3O)cc12	–
